Data taken from US20090264415A2 (priority 2004, published 2009).

Each compound was assayed on peripheral blood mononuclear cells (PBMC) stimulated with allogeneic PBMC or EBV-transformed human B cells (RPMI1788) (assay: Mixed lymphocyte reaction (MLR) assay). Conditions: Homo sapiens, RPMI-1788; MLR assay of example 319; read-out: MLR IC50.
Assay type: cell-based
Outline: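 Compounds, held as 10 mM DMSO stocks and diluted in culture medium, were added to PBMC stimulated by 30 Gy-irradiated allogeneic PBMC or RPMI1788 cells. Proliferation was read as [3H]-thymidine uptake (1 μCi, final 16 h) after 5 days at 37° C. Inhibition was derived from cpm.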

Compound | IC50 [nM]
CC(=O)Oc1ccc(-c2ccc3nc(N)nc(N4CCN(C(=O)COc5ccc(Cl)cc5)CC4)c3n2)cc1 [Example 504, 2-amino-4-[N-(4-chlorophenoxyacetyl)-piperazin-1-yl]-6-(4-acetoxy-phenyl)-pyrido(3,2-d)pyrimidine] | 50
COc1ccc(-c2ccc3nc(N)nc(N4CCN(C(=O)COc5ccc(Cl)cc5)CC4)c3n2)c(OC)c1 [Example 505, 2-amino-4-[N-(4-chlorophenoxyacetyl)-piperazin-1-yl]-6-(2,4-dimethoxyphenyl)-pyrido(3,2-d)pyrimidine] | 72
COc1ccc(OC)c(-c2ccc3nc(N)nc(N4CCN(C(=O)COc5ccc(Cl)cc5)CC4)c3n2)c1 [Example 506, 2-amino-4-[N-(4-chlorophenoxyacetyl)-piperazin-1-yl]-6-(2,5-dimethoxyphenyl)-pyrido(3,2-d)pyrimidine] | 690
Cc1ccc(-c2ccc3nc(N)nc(N4CCN(C(=O)COc5ccc(Cl)cc5)CC4)c3n2)cc1N [Example 507, 2-amino-4-[N-(4-chlorophenoxyacetyl)-piperazin-1-yl]-6-(3-amino-4-methylphenyl)-pyrido(3,2-d)pyrimidine] | 29
CCc1ccc(-c2ccc3nc(N)nc(N4CCN(C(=O)COc5ccc(Cl)cc5)CC4)c3n2)cc1 [Example 508, 2-amino-4-[N-(4-chlorophenoxyacetyl)-piperazin-1-yl]-6-(4-ethylphenyl)-pyrido(3,2-d)pyrimidine] | 12
COc1ccc(-c2ccc3nc(N)nc(N4CCN(C(=O)COc5ccc(Cl)cc5)CC4)c3n2)cc1C [Example 509, 2-amino-4-[N-(4-chlorophenoxyacetyl)-piperazin-1-yl]-6-(3-methyl-4-methoxyphenyl)-pyrido(3,2-d)pyrimidine] | 31
CCOC(=O)c1ccc(-c2ccc3nc(N)nc(N4CCN(C(=O)COc5ccc(Cl)cc5)CC4)c3n2)cc1 [Example 510, 2-amino-4-[N-(4-chlorophenoxyacetyl)-piperazin-1-yl]-6-(4-ethoxycarbonylphenyl)-pyrido(3,2-d)pyrimidine] | 32
Cc1csc(-c2ccc3nc(N)nc(N4CCN(C(=O)COc5ccc(Cl)cc5)CC4)c3n2)c1 [Example 511, 2-amino-4-[N-(4-chlorophenoxyacetyl)-piperazin-1-yl]-6-(4-methyl-2-thienyl)-pyrido(3,2-d)pyrimidine] | 54
Cc1ccccc1-c1ccc2nc(N)nc(N3CCN(C(=O)COc4ccc(Cl)cc4)CC3)c2n1 [Example 512, 2-amino-4-[N-(4-chlorophenoxyacetyl)-piperazin-1-yl]-6-(2-methyl-phenyl)-pyrido(3,2-d)pyrimidine] | 8
Nc1nc(N2CCN(C(=O)COc3ccc(Cl)cc3)CC2)c2nc(-c3ccc(OCc4ccccc4)c(F)c3)ccc2n1 [Example 513, 2-amino-4-[N-(4-chlorophenoxyacetyl)-piperazin-1-yl]-6-(3-fluoro-4-benzyloxy-phenyl)-pyrido(3,2-d)pyrimidine] | > 10000
COc1cc(-c2ccc3nc(N)nc(N4CCN(C(=O)COc5ccc(Cl)cc5)CC4)c3n2)ccc1N [Example 514, 2-amino-4-[N-(4-chlorophenoxyacetyl)-piperazin-1-yl]-6-(3-methoxy-4-amino-phenyl)-pyrido(3,2-d)pyrimidine] | 71
Cc1ccc(-c2ccc3nc(N)nc(N4CCN(C(=O)COc5ccc(Cl)cc5)CC4)c3n2)cc1C [Example 516, 2-amino-4-[N-(4-chlorophenoxyacetyl)-piperazin-1-yl]-6-(3,4-dimethyl-phenyl)-pyrido(3,2-d)pyrimidine] | 56
COc1ccc(-c2ccc3nc(N)nc(N4CCN(C(=O)COc5ccc(Cl)cc5)CC4)c3n2)cc1Cl [Example 517] | 12
Nc1nc(N2CCN(C(=O)C3CCc4ccccc4O3)CC2)c2nc(-c3ccc(F)cc3)ccc2n1 (centres unmarked) [Example 524, [4-(2-amino-6-(4-fluorophenyl)pyrido[3,2-d]pyrimidin-4-yl)piperazin-1-yl]chroman-2-ylmethanone] | 225
